According to the OligoGym collection:
“And” between values parts separate entries of the source, which are not always exact repeats. Identical values can stand only once. After the bases stand the sugars from the 5' end (letter, count) and the backbone: PS all phosphorothioate, else s phosphorothioate and o phosphodiester by linkage. Methylation of C is not given here. e = 2'-O-(2-methoxyethyl) (MOE); k = constrained ethyl (cEt); d = 2'-deoxy (DNA)

Biological target: IRF4
Conditions: ASO

Row | Sequence | target mRNA inhibition (SK-MEL-28, 4 µM) | target mRNA inhibition (MM.1R, 1 µM) | other results
1 | TCTCCGCCTCGGCCGC (sugars k3 d10 k3, PS) | 41% | – | –
2 | GGTAATTTAGGCCAAT (sugars k3 d10 k3, PS) | 35% | – | –
3 | ACAGGGTGCTCCTGAG (sugars k3 d10 k3, PS) | 23% | – | –
4 | AGGCACCGCACTCCGG (sugars k3 d10 k3, PS) | – | -13% | –
5 | CCTGAAAAGAGCCGCC (sugars k3 d10 k3, PS) | – | -3% | –
6 | CCACAACTCTCGCCTC (sugars k3 d10 k3, PS) | – | -9% | –
7 | GTTGTAGTCCTGCTTG (sugars k3 d10 k3, PS) | 22% | – | –
8 | ACTAAGCTTGATAAAG (sugars k3 d10 k3, PS) | – | 14% and 5% | –
9 | GGACATATTTGCTTTG (sugars k3 d10 k3, PS) | 32% | – | –
10 | ACGCAAGTCTGAATTT (sugars k3 d10 k3, PS) | 65% | – | –
11 | AGTATGAGAAACGGCC (sugars kdddddddddkekeke, PS) | – | 4% | –
12 | CCTCAGTTTGTGAAGC (sugars kkdddddddddkdkdk, PS) | – | 8% | –
13 | ATGTGTATTACTCTTA (sugars k2 d9 e3 k2, PS) | – | 40% and 44% | –
14 | GACGGAGGCGGCAGAC (sugars k3 d10 k3, PS) | -43% | – | –
15 | GAACAAAAGGTTCCCG (sugars k3 d10 k3, PS) | 18% | – | –
16 | CTTTATCAAGACAAGG (sugars k3 d10 k3, PS) | 56% | – | –
17 | TACTGCTTGAGGTTTT (sugars kddddddddddkekek, PS) | – | 24% | –
18 | GTGATGTCAGGTTTTC (sugars k3 d10 k3, PS) | – | 66% | target mRNA inhibition (MM.1R, 0.074 µM): 11%; target mRNA inhibition (MM.1R, 0.222 µM): 38%; target mRNA inhibition (MM.1R, 0.666 µM): 66%; target mRNA inhibition (MM.1R, 2 µM): 90%
19 | TACTGTTACCGATGCT (sugars kkdddddddddkekek, PS) | – | 9% and 27% | –
20 | CAGAGTTGTTCCACCC (sugars k3 d10 k3, PS) | 62% | – | –
21 | CCCACACCAGCCCGGG (sugars k4 d8 k4, PS) | -6% | – | –
22 | AAGCTTGATAAAGGCT (sugars kkkdddddddddkeke, PS) | – | -18% | –
23 | CGCAGCATCGAACTCC (sugars k3 d10 k3, PS) | 33% | – | –
24 | CTTTGGGCACCAAAAG (sugars k3 d10 k3, PS) | – | -33% | –
25 | CTGCTTGAGGTTTTCC (sugars k3 d9 k3 e1, PS) | – | 65% | target mRNA inhibition (MM.1R, 0.074 µM): 18%; target mRNA inhibition (MM.1R, 0.222 µM): 36%; target mRNA inhibition (MM.1R, 0.666 µM): 60%; target mRNA inhibition (MM.1R, 2 µM): 82%

Row | Sequence | target mRNA inhibition (SK-MEL-28, 4 µM) | target mRNA inhibition (MM.1R, 1 µM) | other results
26 | ATGACATGCTTTGTCC (sugars k3 d10 k3, PS) | 46% | – | –
27 | AGGCTCGGGCAGAGCC (sugars k3 d10 k3, PS) | 1% | – | –
28 | TATCCTGTAGTATGAG (sugars k3 d10 k3, PS) | – | 42% | –
29 | GGGTTAAAGATGTTAC (sugars k3 d10 k3, PS) | 50% | – | –
30 | CATGGAGGATCATAAA (sugars k3 d10 k3, PS) | 22% | – | –
31 | GCCATTGTCCTCTGGG (sugars k3 d10 k3, PS) | 25% | – | –
32 | TTGTACAGGACAGGTA (sugars k3 d10 k3, PS) | 28% | – | –
33 | TCTGAGACTACACCTA (sugars k3 d10 k3, PS) | 27% | – | –
34 | TGGAGAAACGAGCCAG (sugars k3 d10 k3, PS) | 38% | – | –
35 | TTATATACTGGTTGGT (sugars k2 d9 e3 k2, PS) | – | 40% | –
36 | CATGGGAGATCCGGCA (sugars k3 d10 k3, PS) | 41% | – | –
37 | CCACAAGCAGTGATGT (sugars k3 d10 k3, PS) | – | 16% | –
38 | GAGTCCCCGGCTCCTC (sugars k3 d10 k3, PS) | 25% | – | –
39 | CCCACATGTCCCGTGG (sugars k3 d10 k3, PS) | 5% | – | –
40 | CAGGAACTGACCTAAC (sugars k3 d10 k3, PS) | – | -7% | –
41 | GGCCTTCCTGGCGGAG (sugars k3 d10 k3, PS) | 22% | – | –
42 | GCATTTTATCATCCGA (sugars kkdddddddddekeke, PS) | – | 44% | –
43 | GGAGAGGGCGACGACA (sugars k3 d10 k3, PS) | – | -1% | –
44 | ATGAAAGTGTGTGCAA (sugars k3 d10 k3, PS) | 64% | – | –
45 | CCTTTTCAGAGTCCTG (sugars k3 d10 k3, PS) | 58% | – | –
46 | TTCCAGGTCATTTGAC (sugars k3 d10 k3, PS) | 66% | – | target mRNA inhibition (MM.1R, 0.074 µM): 2%; target mRNA inhibition (MM.1R, 0.222 µM): 3%; target mRNA inhibition (MM.1R, 0.666 µM): 9%; target mRNA inhibition (MM.1R, 2 µM): 27%
47 | GTCAAAAAGATGCAGA (sugars k3 d10 k3, PS) | 50% | – | –
48 | GGCCGATCATCAACTT (sugars k3 d10 k3, PS) | 7% | – | –
49 | AGTAACTGACACGCAC (sugars k3 d10 k3, PS) | 51% | – | –
50 | GTCTGGCTAGCAGAGG (sugars k4 d8 k4, PS) | 9% | – | –

Row | Sequence | target mRNA inhibition (SK-MEL-28, 4 µM) | target mRNA inhibition (MM.1R, 1 µM) | other results
51 | GAAACGGCCTGGAGGT (sugars k3 d10 k3, PS) | – | 17% | –
52 | CCGCACGCAAGGCTCG (sugars k3 d10 k3, PS) | 16% | – | –
53 | GAAATCACGAGGTTGC (sugars k3 d10 k3, PS) | 62% | 32% | target mRNA inhibition (MM.1R, 0.0625 µM): -6%; target mRNA inhibition (MM.1R, 0.074 µM): -3%; target mRNA inhibition (MM.1R, 0.222 µM): 16%; target mRNA inhibition (MM.1R, 0.25 µM): 9%; target mRNA inhibition (MM.1R, 0.666 µM): 22%; target mRNA inhibition (MM.1R, 2 µM): 52%; target mRNA inhibition (MM.1R, 4 µM): 64%
54 | AAAGGTTCCTGTCACC (sugars k3 d10 k3, PS) | 38% | – | –
55 | GAAGCATTTTATCATC (sugars k2 d9 e3 k2, PS) | – | 9% | –
56 | AGTTGTAAATGAGTCG (sugars kkdddddddddekeke, PS) | – | 73% | target mRNA inhibition (MM.1R, 0.074 µM): 17%; target mRNA inhibition (MM.1R, 0.222 µM): 44%; target mRNA inhibition (MM.1R, 0.666 µM): 67%; target mRNA inhibition (MM.1R, 2 µM): 86%
57 | GAACTAATGTCCCCAG (sugars k3 d10 k3, PS) | 61% | – | –
58 | CTGTCACCTGGCAACC (sugars k3 d10 k3, PS) | – | 11% | –
59 | GGATTCTATAAATAGA (sugars k3 d10 k3, PS) | 25% | – | –
60 | GCCGATCATCAACTTC (sugars k3 d10 k3, PS) | – | 26% | –
61 | ATGTGATAGCTGAGCT (sugars kkdddddddddkdkdk, PS) | – | 27% | –
62 | ATAGCTGTTTATTTCC (sugars k3 d10 k3, PS) | 62% | – | target mRNA inhibition (MM.1R, 0.074 µM): 7%; target mRNA inhibition (MM.1R, 0.222 µM): 12%; target mRNA inhibition (MM.1R, 0.666 µM): 24%; target mRNA inhibition (MM.1R, 2 µM): 50%; target mRNA inhibition (SK-MEL-28, 0.185 µM): 13%; target mRNA inhibition (SK-MEL-28, 5 µM): 75%; target mRNA inhibition (SK-MEL-28, 15 µM): 90%
63 | TCCAAACCTTAAGCTA (sugars k3 d10 k3, PS) | 37% | – | –
64 | ATCCCTTATTAGACTG (sugars k3 d10 k3, PS) | – | -7% | –
65 | GCTCCTGAGACAGACT (sugars k3 d10 k3, PS) | 56% | – | –
66 | TCCGGCTTGTCGATGC (sugars k3 d10 k3, PS) | 41% | – | –
67 | AGGAACGAAGAGCAGG (sugars k3 d10 k3, PS) | 43% | – | –
68 | AGCTTCTTTGAAGTGC (sugars k3 d10 k3, PS) | 62% | – | –
69 | GTCACCTGGCAACCAT (sugars k3 d10 k3, PS) | 41% | – | –
70 | CCCACGAAGGGCAGTG (sugars k3 d10 k3, PS) | 35% | – | –
71 | TACCCTGGATCACTCA (sugars k3 d10 k3, PS) | 65% | – | –
72 | GGCACATCAATGTTTT (sugars kddddddddddkekek, PS) | – | 28% and 25% | –
73 | GCCCACATAATCCAGT (sugars k3 d10 k3, PS) | 22% | – | –
74 | CCTGAGTTACCGCATT (sugars k3 d10 k3, PS) | – | 24% | –
75 | ACGACAGCATAGCATT (sugars k3 d10 k3, PS) | 67% | – | –

Row | Sequence | target mRNA inhibition (SK-MEL-28, 4 µM) | target mRNA inhibition (MM.1R, 1 µM) | other results
76 | CCAGGGTGAGCTGCTT (sugars k3 d10 k3, PS) | 31% | – | –
77 | AAGCTTGATAAAGGCT (sugars kkddddddddddkeke, PS) | – | -18% | –
78 | GTAGTCCTGCTTGCCC (sugars k4 d8 k4, PS) | 11% | – | –
79 | GCTCAACCAGTTCCTC (sugars k3 d10 k3, PS) | 38% | – | –
80 | CCTTGAAGAGCGCGGC (sugars k3 d10 k3, PS) | 24% | – | –
81 | GTAAACACATCACTTG (sugars k3 d10 k3, PS) | 51% | – | –
82 | TATAACGGTGTTTCAG (sugars k3 d10 k3, PS) | – | 36% | –
83 | TGAAGCAACACGGGAA (sugars k3 d10 k3, PS) | 60% | – | –
84 | GCACAATTCTCTGAGA (sugars k3 d10 k3, PS) | 34% | – | –
85 | CATCGAGATCAGTCTC (sugars k3 d10 k3, PS) | 65% | – | –
86 | GAGGAGGAGGACTTAT (sugars k3 d10 k3, PS) | 51% | – | –
87 | TCTACAGAACACAAGA (sugars k3 d10 k3, PS) | -8% | – | –
88 | TGATGTGATAGCTGAG (sugars k3 d10 k3, PS) | – | 59% | –
89 | GCTAGATTCTCCCTGC (sugars k3 d10 k3, PS) | – | -13% | –
90 | AATGGCGGATAGATCT (sugars k3 d10 k3, PS) | – | 10% and 25% | –
91 | ATAGCTGAGCTGATCA (sugars k3 d10 k3, PS) | – | 30% | –
92 | TTCCAGCTTAGTCACC (sugars k3 d10 k3, PS) | 37% | – | –
93 | TGCTTGAGGTTTTCCT (sugars kkkdddddddddkeke, PS) | – | 35% | –
94 | ACCTAACTAAATGTCA (sugars k3 d10 k3, PS) | – | -24% | –
95 | GCCGCTGTCGATCTGG (sugars k3 d10 k3, PS) | 24% | – | –
96 | CGGATAGATCTGTGGT (sugars k3 d10 k3, PS) | – | – | target mRNA inhibition (MM.1R, 0.0625 µM): -25%; target mRNA inhibition (MM.1R, 0.25 µM): -3%; target mRNA inhibition (MM.1R, 4 µM): 50%
97 | TGTCCAGCTGGCTCCG (sugars k3 d10 k3, PS) | 39% | – | –
